For assay [1], the target named is T1, Myo1C^35-ΔTH1 (acto·Myo1C^35-ΔTH1) (Homo sapiens, UniProt O00159).
T1 construct: 35-residue N-terminal extension + motor domain + 3 IQ motifs + post-IQ; C-terminal 176-residue TH1 domain replaced by C-terminal octa-histidine tag; coproduced with human calmodulin in baculovirus/Sf9; with Calmodulin-1; Actin, alpha skeletal muscle (Gallus gallus, chicken pectoralis major muscle F-actin, pyrene-labeled)
In words: stopped-flow, ADP inhibition of ATP-induced dissociation from pyrene-labeled F-actin, slow-phase amplitude fraction. Type of assay: binding. From the text:
stopped-flow, ADP inhibition of ATP-induced dissociation from pyrene-labeled F-actin, slow-phase amplitude fraction on Myo1C^35-ΔTH1 (acto·Myo1C^35-ΔTH1)

Assay [2] has as its target T1, Myo1C^35-ΔTH1 (acto·Myo1C^35-ΔTH1). In words: stopped-flow, ATP-induced dissociation from pyrene-labeled F-actin, fast phase. The assay is classed as binding. From the text: stopped-flow, ATP-induced dissociation from pyrene-labeled F-actin, fast phase on Myo1C^35-ΔTH1 (acto·Myo1C^35-ΔTH1)

T1 sequence (O00159 1-887, stated change not applied): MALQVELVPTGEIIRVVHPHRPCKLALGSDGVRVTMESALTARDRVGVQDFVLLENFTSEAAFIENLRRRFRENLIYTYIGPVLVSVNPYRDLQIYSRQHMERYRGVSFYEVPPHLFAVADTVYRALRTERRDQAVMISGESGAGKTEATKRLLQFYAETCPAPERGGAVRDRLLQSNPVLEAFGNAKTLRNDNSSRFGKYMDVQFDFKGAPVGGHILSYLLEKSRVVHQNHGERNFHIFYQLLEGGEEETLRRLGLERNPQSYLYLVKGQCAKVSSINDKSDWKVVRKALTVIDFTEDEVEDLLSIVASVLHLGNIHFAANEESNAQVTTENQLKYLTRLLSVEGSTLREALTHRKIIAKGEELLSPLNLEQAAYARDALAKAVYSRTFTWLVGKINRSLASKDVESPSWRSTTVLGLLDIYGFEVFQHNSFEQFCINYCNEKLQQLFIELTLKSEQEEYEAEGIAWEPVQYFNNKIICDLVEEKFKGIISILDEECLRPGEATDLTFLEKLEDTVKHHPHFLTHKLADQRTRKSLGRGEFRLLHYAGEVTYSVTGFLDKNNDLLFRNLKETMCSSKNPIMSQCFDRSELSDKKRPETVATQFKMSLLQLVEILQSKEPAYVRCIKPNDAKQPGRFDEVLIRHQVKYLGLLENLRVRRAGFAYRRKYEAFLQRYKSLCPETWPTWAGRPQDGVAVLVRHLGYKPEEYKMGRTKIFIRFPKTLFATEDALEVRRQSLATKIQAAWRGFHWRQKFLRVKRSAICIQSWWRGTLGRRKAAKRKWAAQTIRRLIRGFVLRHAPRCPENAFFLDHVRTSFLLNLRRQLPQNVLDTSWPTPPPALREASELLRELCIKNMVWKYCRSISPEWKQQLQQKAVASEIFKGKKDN

On to `Nc1ncnc2c1ncn2[C@@H]1O[C@H](COP(=O)(O)OP(=O)(O)O)[C@@H](O)[C@H]1O` [ADP], for which binding in assay [1] was characterised by a dissociation constant (Kd) of 0.23 ± 0.03 µM.

Turning to `Nc1ncnc2c1ncn2[C@@H]1O[C@H](COP(=O)(O)OP(=O)(O)OP(=O)(O)O)[C@@H](O)[C@H]1O` [ATP], in assay [2], the Kd was 405 ± 79 µM.

By Kd is commonly meant a measure of binding affinity in units of concentration. Read a low Kd as higher affinity.
